# What was measured:
# [1] = molecular target: Mitogen-activated protein kinase 10 (Homo sapiens, UniProt P53779); experiment: Inhibition of JNK3
# [2] = Plasma concentration in rat at 3 mg/kg, iv after 4 hrs; type: ADME, organism-based; design: dose 3 mg/kg, route intravenous
# [3] = molecular target: RAC-gamma serine/threonine-protein kinase (Homo sapiens, UniProt Q9Y243); experiment: Inhibition of AKT3
# [4] = molecular target: Ribosomal protein S6 kinase alpha-6 (Homo sapiens) (UniProt Q9UK32); experiment: Inhibition of RSK4 at 1 uM
# [5] = molecular target: Serine/threonine-protein kinase pim-1 (Homo sapiens) (UniProt P11309); experiment: Inhibition of PIM1 at 1 uM
# [6] = molecular target: Dual specificity mitogen-activated protein kinase kinase 6 (Homo sapiens) (UniProt P52564); experiment: Inhibition of MKK6 at 2 uM
# [7] = molecular target: Ribosomal protein S6 kinase alpha-1 (Homo sapiens) (UniProt Q15418); experiment: Inhibition of RSK1 at 1 uM
# [8] = molecular target: Serine/threonine-protein kinase PLK1 (Homo sapiens, UniProt P53350); experiment: Inhibition of PLK1
# [9] = molecular target: Phosphorylase b kinase gamma catalytic chain, liver/testis isoform (Homo sapiens) (UniProt P15735); experiment: Inhibition of PHKgamma2 at 1 uM
# [10] = molecular target: Mitogen-activated protein kinase kinase kinase 3 (Homo sapiens, UniProt Q99759); experiment: Inhibition of MEKK3
# [11] = molecular target: Platelet-derived growth factor receptor alpha (Homo sapiens) (UniProt P16234); experiment: Inhibition of PDGFRalpha at 2 uM
# [12] = Plasma concentration in rat at 10 mg/kg, po after 4 hrs; type: ADME, organism-based; design: dose 10 mg/kg, route oral
# [13] = molecular target: Mitogen-activated protein kinase kinase kinase 10 (Homo sapiens, UniProt Q02779); experiment: Inhibition of MLK2
# [14] = molecular target: Serine/threonine-protein kinase Sgk1 (Homo sapiens) (UniProt O00141); experiment: Inhibition of SGK1 at 1 uM
# [15] = molecular target: Focal adhesion kinase 1 (Homo sapiens, UniProt Q05397); experiment: Inhibition of FAK
# [16] = Plasma concentration in mouse at 33 mg/kg, po after 8 hrs; type: ADME, organism-based; design: dose 33 mg/kg, route oral
# [17] = molecular target: Serine/threonine-protein kinase D3 (Homo sapiens) (UniProt O94806); experiment: Inhibition of PRKD3 at 1 uM
# [18] = molecular target: Cyclin-dependent kinase 1 (Homo sapiens) (UniProt P06493); experiment: Inhibition of CDK1 at 1 uM
# [19] = molecular target: Dual specificity mitogen-activated protein kinase kinase 7 (Homo sapiens) (UniProt O14733); experiment: Inhibition of MKK7 at 2 uM
# [20] = molecular target: Protein kinase C gamma type (Homo sapiens) (UniProt P05129); experiment: Inhibition of PKCgamma at 2 uM
# [21] = molecular target: Serine/threonine-protein kinase PAK 3 (Homo sapiens) (UniProt O75914); experiment: Inhibition of PAK3 at 1 uM
# [22] = Plasma concentration in mouse at 33 mg/kg, po after 4 hrs; type: ADME, organism-based; design: dose 33 mg/kg, route oral
# [23] = molecular target: Interleukin-1 receptor-associated kinase 4 (Homo sapiens, UniProt Q9NWZ3); experiment: Inhibition of IRAK4
# [24] = molecular target: Tyrosine-protein kinase JAK3 (Homo sapiens, UniProt P52333); experiment: Inhibition of JAK3
# [25] = Plasma concentration in mouse at 5 mg/kg, iv after 4 hrs; type: ADME, organism-based; design: dose 5 mg/kg, route intravenous
# [26] = molecular target: Serine/threonine-protein kinase PAK 1 (Homo sapiens) (UniProt Q13153); experiment: Inhibition of PAK1 at 1 uM
# [27] = molecular target: Inhibitor of nuclear factor kappa-B kinase subunit epsilon (Homo sapiens, UniProt Q14164); experiment: Inhibition of IKKi
# [28] = molecular target: Dual specificity tyrosine-phosphorylation-regulated kinase 2 (Homo sapiens) (UniProt Q92630); experiment: Inhibition of DYRK2 at 1 uM
# [29] = molecular target: Tyrosine-protein kinase Mer (Homo sapiens) (UniProt Q12866); experiment: Inhibition of MER at 1 uM
# [30] = molecular target: Tyrosine-protein kinase Lck (Homo sapiens) (UniProt P06239); experiment: Inhibition of LCK at 2 uM
# [31] = molecular target: Calcium/calmodulin-dependent protein kinase type IV (Homo sapiens) (UniProt Q16566); experiment: Inhibition of CAMK4 at 2 uM
# [32] = molecular target: Mitogen-activated protein kinase kinase kinase 7 (Homo sapiens, UniProt O43318); experiment: Inhibition of TAK1
# [33] = molecular target: Dual specificity mitogen-activated protein kinase kinase 4 (Homo sapiens) (UniProt P45985); experiment: Inhibition of MKK4 at 2 uM
# [34] = molecular target: Fibroblast growth factor receptor 1 (Homo sapiens) (UniProt P11362); experiment: Inhibition of FGFR1 at 1 uM
# [35] = molecular target: Serine/threonine-protein kinase MARK2 (Homo sapiens) (UniProt Q7KZI7); experiment: Inhibition of PAR-1Balpha at 1 uM
# [36] = molecular target: Rho-associated protein kinase 2 (Homo sapiens) (UniProt O75116); experiment: Inhibition of ROCK 2 at 2 uM
# [37] = molecular target: Hepatocyte growth factor receptor (Homo sapiens, UniProt P08581); experiment: Inhibition of MET
# [38] = molecular target: Inhibitor of nuclear factor kappa-B kinase subunit alpha (Homo sapiens) (UniProt O15111); conditions: 2 uM
# Description: Inhibition of IKKalpha at 2 uM
# [39] = molecular target: Mitogen-activated protein kinase kinase kinase 8 (Homo sapiens, UniProt P41279); experiment: Inhibition of COT
# [40] = molecular target: Tyrosine-protein kinase Blk (Homo sapiens) (UniProt P51451); experiment: Inhibition of BLK at 2 uM
# [41] = AUC (0 to 8 hrs) in mouse at 5 mg/kg, iv; type: ADME, organism-based; design: time < 8 hr, dose 5 mg/kg, route intravenous; conditions: plasma
# [42] = molecular target: Misshapen-like kinase 1 (Homo sapiens) (UniProt Q8N4C8); experiment: Inhibition of MINK at 1 uM
# [43] = molecular target: Tyrosine-protein kinase ITK/TSK (Homo sapiens, UniProt Q08881); experiment: Inhibition of ITK
# [44] = molecular target: RAC-beta serine/threonine-protein kinase (Homo sapiens) (UniProt P31751); experiment: Inhibition of AKT2 at 1 uM
# [45] = molecular target: Serine/threonine-protein kinase TBK1 (Homo sapiens) (UniProt Q9UHD2); experiment: Inhibition of TBK1 at 1 uM
# [46] = molecular target: Serine/threonine-protein kinase N2 (Homo sapiens) (UniProt Q16513); experiment: Inhibition of PRK2 at 2 uM
# [47] = molecular target: Epidermal growth factor receptor (Homo sapiens) (UniProt P00533); experiment: Inhibition of EGFR at 1 uM
# [48] = molecular target: Serine/threonine-protein kinase MARK1 (Homo sapiens) (UniProt Q9P0L2); experiment: Inhibition of MARK1 at 1 uM
# [49] = molecular target: Mast/stem cell growth factor receptor Kit (Homo sapiens) (UniProt P10721); experiment: Inhibition of KIT at 1 uM
# [50] = molecular target: Macrophage-stimulating protein receptor (Homo sapiens) (UniProt Q04912); experiment: Inhibition of RON at 1 uM
# [51] = molecular target: Tyrosine-protein kinase ABL1 (Homo sapiens) (UniProt P00519); experiment: Inhibition of ABL1 at 1 uM
# [52] = molecular target: Proto-oncogene tyrosine-protein kinase Src (Homo sapiens, UniProt P12931); experiment: Inhibition of SRC
# Chain of Interleukin-1 receptor-associated kinase 4 (Q9NWZ3 whole entry): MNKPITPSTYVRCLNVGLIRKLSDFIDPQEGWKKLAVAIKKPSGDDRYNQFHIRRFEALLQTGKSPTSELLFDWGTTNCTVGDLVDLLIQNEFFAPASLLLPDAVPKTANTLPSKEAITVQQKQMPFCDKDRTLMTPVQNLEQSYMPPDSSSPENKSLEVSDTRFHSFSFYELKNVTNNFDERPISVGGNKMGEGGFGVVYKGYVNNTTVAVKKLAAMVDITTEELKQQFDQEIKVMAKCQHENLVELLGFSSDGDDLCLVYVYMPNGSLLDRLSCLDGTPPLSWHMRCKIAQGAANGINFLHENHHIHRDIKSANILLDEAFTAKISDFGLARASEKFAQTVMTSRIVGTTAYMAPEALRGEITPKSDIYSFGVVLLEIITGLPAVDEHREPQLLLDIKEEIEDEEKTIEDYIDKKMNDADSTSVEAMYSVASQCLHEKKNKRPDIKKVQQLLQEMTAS
# Chain of Inhibitor of nuclear factor kappa-B kinase subunit alpha (Homo sapiens) (O15111 whole entry): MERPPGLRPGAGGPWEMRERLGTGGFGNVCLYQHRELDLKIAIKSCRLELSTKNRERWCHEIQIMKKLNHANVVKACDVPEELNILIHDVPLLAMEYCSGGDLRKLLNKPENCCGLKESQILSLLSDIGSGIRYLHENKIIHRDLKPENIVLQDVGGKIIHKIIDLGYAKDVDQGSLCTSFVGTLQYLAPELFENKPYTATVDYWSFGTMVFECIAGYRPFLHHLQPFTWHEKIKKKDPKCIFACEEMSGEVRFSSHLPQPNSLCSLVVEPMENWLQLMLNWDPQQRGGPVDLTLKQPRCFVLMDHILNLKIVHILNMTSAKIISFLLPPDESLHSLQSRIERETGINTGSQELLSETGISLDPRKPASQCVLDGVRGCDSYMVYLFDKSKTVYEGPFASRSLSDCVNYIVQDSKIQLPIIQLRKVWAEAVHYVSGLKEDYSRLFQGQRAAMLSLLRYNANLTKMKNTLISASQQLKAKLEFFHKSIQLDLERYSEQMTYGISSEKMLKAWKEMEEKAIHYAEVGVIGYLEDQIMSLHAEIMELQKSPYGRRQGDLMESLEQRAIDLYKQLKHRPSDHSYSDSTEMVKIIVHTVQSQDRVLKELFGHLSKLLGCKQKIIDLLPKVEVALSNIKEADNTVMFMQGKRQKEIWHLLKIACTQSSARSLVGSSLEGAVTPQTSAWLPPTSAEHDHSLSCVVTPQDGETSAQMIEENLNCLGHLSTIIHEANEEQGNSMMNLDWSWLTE
# Chain of Mitogen-activated protein kinase kinase kinase 8 (P41279 whole entry): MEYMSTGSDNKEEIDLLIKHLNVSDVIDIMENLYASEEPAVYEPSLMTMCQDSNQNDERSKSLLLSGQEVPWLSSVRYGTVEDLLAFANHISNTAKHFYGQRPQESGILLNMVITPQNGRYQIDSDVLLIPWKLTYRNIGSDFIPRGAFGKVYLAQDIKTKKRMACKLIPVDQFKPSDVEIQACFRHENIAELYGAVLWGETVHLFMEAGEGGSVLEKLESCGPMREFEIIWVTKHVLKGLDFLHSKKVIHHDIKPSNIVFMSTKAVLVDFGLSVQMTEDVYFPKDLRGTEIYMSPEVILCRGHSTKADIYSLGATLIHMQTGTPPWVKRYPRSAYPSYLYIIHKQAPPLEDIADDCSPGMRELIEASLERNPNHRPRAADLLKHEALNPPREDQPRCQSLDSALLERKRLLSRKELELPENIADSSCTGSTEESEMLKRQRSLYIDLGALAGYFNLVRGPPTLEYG
# Chain of Mitogen-activated protein kinase 10 (P53779 whole entry): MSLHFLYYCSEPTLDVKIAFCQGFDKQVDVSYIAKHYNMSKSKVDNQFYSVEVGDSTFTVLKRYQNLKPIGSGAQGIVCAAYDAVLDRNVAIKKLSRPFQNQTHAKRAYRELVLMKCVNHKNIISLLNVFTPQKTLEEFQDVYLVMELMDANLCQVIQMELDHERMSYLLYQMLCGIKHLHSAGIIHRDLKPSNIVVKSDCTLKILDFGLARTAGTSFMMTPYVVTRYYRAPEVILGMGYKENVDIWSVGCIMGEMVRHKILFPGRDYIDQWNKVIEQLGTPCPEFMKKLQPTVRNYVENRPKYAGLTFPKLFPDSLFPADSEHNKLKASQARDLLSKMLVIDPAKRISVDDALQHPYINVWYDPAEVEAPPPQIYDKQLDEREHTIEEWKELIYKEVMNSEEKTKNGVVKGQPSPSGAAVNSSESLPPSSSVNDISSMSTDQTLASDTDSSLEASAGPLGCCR
# Chain of Serine/threonine-protein kinase PAK 1 (Homo sapiens) (Q13153 whole entry): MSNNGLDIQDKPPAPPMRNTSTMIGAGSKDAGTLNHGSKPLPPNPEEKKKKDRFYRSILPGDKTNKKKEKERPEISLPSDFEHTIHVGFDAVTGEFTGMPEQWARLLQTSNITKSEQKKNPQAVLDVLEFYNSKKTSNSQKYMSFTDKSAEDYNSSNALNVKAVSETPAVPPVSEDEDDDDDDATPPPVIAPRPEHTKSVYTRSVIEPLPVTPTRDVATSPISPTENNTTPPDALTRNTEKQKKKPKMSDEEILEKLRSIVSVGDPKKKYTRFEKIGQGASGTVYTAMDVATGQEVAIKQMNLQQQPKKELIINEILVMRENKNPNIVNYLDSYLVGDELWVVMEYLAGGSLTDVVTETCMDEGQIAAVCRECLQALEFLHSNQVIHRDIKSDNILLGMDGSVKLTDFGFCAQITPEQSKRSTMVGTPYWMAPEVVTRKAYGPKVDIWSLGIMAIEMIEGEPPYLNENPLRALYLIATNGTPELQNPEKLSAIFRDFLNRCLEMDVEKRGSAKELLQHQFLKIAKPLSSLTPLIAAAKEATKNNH
# Chain of Serine/threonine-protein kinase D3 (Homo sapiens) (O94806 whole entry): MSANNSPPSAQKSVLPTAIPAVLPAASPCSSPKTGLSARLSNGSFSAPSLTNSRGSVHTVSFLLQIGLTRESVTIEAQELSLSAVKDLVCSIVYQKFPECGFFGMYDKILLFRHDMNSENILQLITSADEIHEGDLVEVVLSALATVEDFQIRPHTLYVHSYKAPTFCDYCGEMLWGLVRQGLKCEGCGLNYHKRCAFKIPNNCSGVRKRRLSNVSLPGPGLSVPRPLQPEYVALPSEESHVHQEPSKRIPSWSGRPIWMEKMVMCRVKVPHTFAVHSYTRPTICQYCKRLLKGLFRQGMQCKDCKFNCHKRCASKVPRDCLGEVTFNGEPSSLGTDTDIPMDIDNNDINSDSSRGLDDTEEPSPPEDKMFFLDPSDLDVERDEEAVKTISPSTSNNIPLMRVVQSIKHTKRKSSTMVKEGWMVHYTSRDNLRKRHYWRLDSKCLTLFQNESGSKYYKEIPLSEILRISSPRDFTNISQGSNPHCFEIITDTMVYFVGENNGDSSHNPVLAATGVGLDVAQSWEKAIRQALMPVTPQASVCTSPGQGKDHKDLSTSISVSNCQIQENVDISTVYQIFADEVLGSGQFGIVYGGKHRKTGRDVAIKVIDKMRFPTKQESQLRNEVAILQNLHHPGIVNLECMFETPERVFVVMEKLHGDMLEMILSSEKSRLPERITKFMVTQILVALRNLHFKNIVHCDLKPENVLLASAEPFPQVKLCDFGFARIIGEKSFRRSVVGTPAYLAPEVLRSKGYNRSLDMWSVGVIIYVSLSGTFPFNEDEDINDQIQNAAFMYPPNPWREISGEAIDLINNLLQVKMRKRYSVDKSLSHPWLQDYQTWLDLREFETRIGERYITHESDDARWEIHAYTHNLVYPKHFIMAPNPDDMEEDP
# Chain of Ribosomal protein S6 kinase alpha-6 (Homo sapiens) (Q9UK32 whole entry): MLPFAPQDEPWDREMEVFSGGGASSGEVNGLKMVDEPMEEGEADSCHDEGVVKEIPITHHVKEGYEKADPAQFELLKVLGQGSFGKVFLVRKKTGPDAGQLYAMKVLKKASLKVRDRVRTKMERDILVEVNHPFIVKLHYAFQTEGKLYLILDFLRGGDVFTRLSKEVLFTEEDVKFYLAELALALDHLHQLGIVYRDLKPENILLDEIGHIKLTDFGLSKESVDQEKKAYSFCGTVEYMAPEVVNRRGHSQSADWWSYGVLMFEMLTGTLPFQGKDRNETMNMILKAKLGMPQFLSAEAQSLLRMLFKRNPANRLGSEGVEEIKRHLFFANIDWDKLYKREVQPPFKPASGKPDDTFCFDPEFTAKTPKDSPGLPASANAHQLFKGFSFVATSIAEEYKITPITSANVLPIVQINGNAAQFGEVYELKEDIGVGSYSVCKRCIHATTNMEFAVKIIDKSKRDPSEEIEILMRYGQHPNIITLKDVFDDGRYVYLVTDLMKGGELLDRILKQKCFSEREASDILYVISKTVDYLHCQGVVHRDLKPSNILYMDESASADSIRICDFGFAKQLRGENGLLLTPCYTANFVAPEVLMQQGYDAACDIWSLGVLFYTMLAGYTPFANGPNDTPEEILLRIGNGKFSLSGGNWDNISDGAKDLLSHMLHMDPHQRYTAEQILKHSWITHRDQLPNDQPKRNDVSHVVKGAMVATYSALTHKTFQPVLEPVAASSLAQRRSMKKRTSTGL
# Chain of Phosphorylase b kinase gamma catalytic chain, liver/testis isoform (Homo sapiens) (P15735 whole entry, canonical isoform): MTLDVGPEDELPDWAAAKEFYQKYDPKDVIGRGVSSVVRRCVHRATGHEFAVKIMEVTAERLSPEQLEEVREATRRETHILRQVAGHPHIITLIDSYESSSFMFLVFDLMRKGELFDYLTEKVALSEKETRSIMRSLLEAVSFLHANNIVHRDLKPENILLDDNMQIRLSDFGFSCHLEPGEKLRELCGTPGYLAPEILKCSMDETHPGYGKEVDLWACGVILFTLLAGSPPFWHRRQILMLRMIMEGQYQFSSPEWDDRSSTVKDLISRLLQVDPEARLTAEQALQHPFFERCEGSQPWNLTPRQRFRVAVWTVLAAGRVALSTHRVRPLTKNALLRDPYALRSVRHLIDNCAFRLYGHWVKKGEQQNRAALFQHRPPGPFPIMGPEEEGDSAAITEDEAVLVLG
# Chain of Cyclin-dependent kinase 1 (Homo sapiens) (P06493 whole entry, looked up): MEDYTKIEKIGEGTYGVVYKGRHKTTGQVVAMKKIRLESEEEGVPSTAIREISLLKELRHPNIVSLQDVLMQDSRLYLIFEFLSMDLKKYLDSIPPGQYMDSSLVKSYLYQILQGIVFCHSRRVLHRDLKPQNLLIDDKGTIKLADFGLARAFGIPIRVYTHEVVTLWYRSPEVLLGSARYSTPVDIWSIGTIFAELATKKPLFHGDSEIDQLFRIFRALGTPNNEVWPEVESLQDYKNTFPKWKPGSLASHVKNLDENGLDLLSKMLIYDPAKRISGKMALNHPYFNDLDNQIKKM
smiles,measurement,setting,value
Cc1cnc(Nc2ccc(F)cc2Cl)nc1-c1c[nH]c(C(=O)N[C@H](CO)c2cccc(Cl)c2)c1,Ki,[1],1400 nM
same,concentration at 4 h,[2],123 ng/mL
same,Ki,[3],> 4 µM
same,inhibition,[4],11%
same,inhibition,[5],0%
same,inhibition,[6],9%
same,inhibition,[7],4%
same,Ki,[8],> 4 µM
same,inhibition,[9],4%
same,Ki,[10],> 4 µM
same,inhibition,[11],3%
same,concentration at 4 h,[12],329 ng/mL
same,Ki,[13],> 10 µM
same,inhibition,[14],15%
same,Ki,[15],> 10 µM
same,concentration at 8 h,[16],122 ng/mL
same,inhibition,[17],21%
same,inhibition,[18],7%
same,inhibition,[19],6%
same,inhibition,[20],11%
same,inhibition,[21],3%
same,concentration at 4 h,[22],488 ng/mL
same,Ki,[23],> 4 µM
same,Ki,[24],> 4 µM
same,concentration at 4 h,[25],79 ng/mL
same,inhibition,[26],3%
same,Ki,[27],> 5 µM
same,inhibition,[28],3%
same,inhibition,[29],9%
same,inhibition,[30],3%
same,inhibition,[31],0%
same,Ki,[32],3 µM
same,inhibition,[33],69%
same,inhibition,[34],3%
same,inhibition,[35],5%
same,inhibition,[36],57%
same,Ki,[37],> 4 µM
same,inhibition,[38],0%
same,Ki,[39],> 4 µM
same,inhibition,[40],7%
same,AUC(0-t) at 8 h,[41],1600 ng·h/mL
same,inhibition,[42],18%
same,Ki,[43],> 4 µM
same,inhibition,[44],0%
same,inhibition,[45],3%
same,inhibition,[46],14%
same,inhibition,[47],6%
same,inhibition,[48],12%
same,inhibition,[49],8%
same,inhibition,[50],1%
same,inhibition,[51],3%
same,Ki,[52],> 4 µM

# From ChEMBL document CHEMBL1154622, “Structure-guided design of potent and selective pyrimidylpyrrole inhibitors of extracellular signal-regulated kinase (ERK) using conformational control” (J Med Chem, 2009)
